Among the data in patent publication US20230321103A1, “COMPOUND FOR INHIBITING MUTANT EGFR AND USE THEREOF” (East China University of Science and Technology, priority 2020, published 2023) are IC50 and GI50 values, retold here.

In one experiment the target is T1, EGFR (A763_Y764insFQEA) (Homo sapiens, UniProt P00533, INS763FQEA).
T1 construct: purchased Reaction Biology Corporation (commissioned test)
Put plainly: Kinase spectrum evaluation, radiometric 33P-ATP kinase assay. The experiment is classed as biochemical. The note with it: room temperature 2 h, 10 concentration gradients.

The target of a further experiment is T2, EGFR (G719S) (Homo sapiens, UniProt P00533, G719S).
T2 construct: purchased Reaction Biology Corporation (commissioned test)
The description is as above. Format: biochemical. The note with it: room temperature 2 h, 10 concentration gradients.

In experiment [1] the target is T3, EGFR (D770_N771insNPG/T790M) (Homo sapiens, UniProt P00533, INS770NPG/T790M).
T3 construct: purchased Reaction Biology Corporation (commissioned test)
The description is as above. Format: biochemical. The note with it: room temperature 2 h, 10 concentration gradients.

Another experiment concerns the target T4, EGFR (L858R) (Homo sapiens, UniProt P00533, L858R).
T4 construct: purchased Reaction Biology Corporation (commissioned test)
The experiment is described as above. The experiment is classed as biochemical. The note with it: room temperature 2 h, 10 concentration gradients.

The next experiment has as its target T5, EGFR (d747-749/A750P) (Homo sapiens, UniProt P00533, A750P/DEL747-749).
T5 construct: purchased Reaction Biology Corporation (commissioned test)
The description is as above. The note with it: room temperature 2 h, 10 concentration gradients. Format: biochemical.

The test system of experiment [2] is EGFR V769_D770insASV BaF3. The experiment in a line: Proliferation inhibition assay on stable cell lines (CTG Assay). The experiment is classed as cell-based. The note with it: Mus musculus, 72 hours, CellTiter-Glo. An excerpt: (§1) Ba/F3, a mouse pro-B cell line dependent on interleukin-3, is a common system for studying kinases and kinase inhibitors. Recombinant expression of some protein kinases can make Ba/F3 cells no longer dependent on IL-3 for growth, and based on such properties, the inhibition of a compound on the proliferation of Ba/F3 cells expressing different target kinases can be detected, so as to reflect inhibitory effects of the compound on different kinase targets at the cellular level for kinase inhibitor screening.
(§2) CellTiter-Glo® Luminescent Cell Viability Assay was employed in this experiment to detect cell proliferation, and the specific principles are as follows:
(§3) Adenosine Tri-Phosphate (ATP) is a common energy carrier used in various life activities in nature and is the smallest unit of energy storage and transfer. In the CellTiter-Glo™ Live Cell Assay Kit, […] are used as detectors, which require the participation of ATP to generate light signals. After the CellTiter-Glo™ reagent is added to the cells, the luminescence value is measured. The light signal is proportional to the amount of ATP in the system, which is in turn positively correlated with the number of living cells. Therefore, by measuring the ATP content using the CellTiter-Glo kit, the viability of the cells and thus the level of cell proliferation can be reflected.
(§4) Cells were removed from the liquid nitrogen, quickly thawed in a water bath at 37 degree Celsius, lyophilization tubes were centrifuged at 1000 rpm, the supernatant of the lyophilized solution was discarded, and the cells were resuspended in RPMI1640+10% FBS medium and incubated in a cell culture incubator at 37 degree Celsius with a cell culture density maintaining at 2*10e5 to 2*10e6/ml at all times.
(§5) 1) The compound were serially diluted in DMSO in a compound formulation plate with a starting concentration of 1 or 10 mM and a gradient dilution of 3.
(§6) 2) A new compound formulation plate was prepared, 198 ul of RPMI160+10% FBS medium was added to each well, 2 ul/well of compound from the previous gradient-diluted compound formulation plate was transferred to this plate and mixed well, so that the highest starting compound concentration in this plate was […], and diluted by gradient (this plate was a 10* compound concentration dilution plate).
(§7) 1) Cells in logarithmic growth phase were taken, the supernatant was discarded by centrifugation, and the cells were re-suspended in a fresh RPMI1640 medium at a cell density of 2*10e4/ml.
(§8) 2) The re-suspended cells were inoculated into 2 96-well cell culture plates with white walls and clear bottom at 100 ul of cell suspension/well, and incubated overnight in a 37° C. cell incubator.
(§9) 3) The next day, one of the 96-well plates inoculated with cells were taken, 100 µl/well of cell titer glo assay reagent was added for 60 minutes, the value was read and defined as G0 data.
(§10) 4) Another parallel plate was taken, 11.1 ul/well of compound from the previously diluted 10* compound concentration dilution plate was added to this plate, so that the final concentration of compound in the cell assay plate started from 0.5 or 1 uM, which was 3-fold diluted for 9 concentration gradients. Additional DMSO control wells were set, and incubated in a 37° C. cell incubator for another 72 hours.
(§11) 5) The 96-well plate, in which cells were treated by the compound for 72 hrs, were taken from the incubator, 100 ul/well of cell titer glo assay reagent was added for 60 minutes, the value was read and defined as G3 data.
(§12) 6) The cell proliferation rate corresponding to each well was calculated according to the following formula
(§13) % prolifation=(G3 of the well of the compound to be tested−mean value of G)/(mean value of G3 of the DMSO control well−mean value of G0)*100.
(§14) Y=Bottom+(Top−Bottom)/(1+10^((Log IC50−X)*HillSlope))

For a further experiment, the system named is EGFR H773_V774insH BaF3. The description is as above. The experiment is classed as cell-based. The note with it: Mus musculus, 72 hours, CellTiter-Glo.
From the text: as §1, §2, §3, §4, §5, §6, §7, §8, §9, §10, §11, §12, §13, §14

Experiment [3] deals with EGFR D770_N771insNPG BaF3. Described as above. The experiment is classed as cell-based. The note with it: Mus musculus, 72 hours, CellTiter-Glo.
From the text: as §1, §2, §3, §4, §5, §6, §7, §8, §9, §10, §11, §12, §13, §14

Experiment [4] has as its system EGFR D770_N771insSVD BaF3. Described as above. The experiment is classed as cell-based. The note with it: Mus musculus, 72 hours, CellTiter-Glo.
From the text: as §1, §2, §3, §4, §5, §6, §7, §8, §9, §10, §11, §12, §13, §14

The next experiment concerns EGFR G719A BaF3. Described as above. The experiment is classed as cell-based. The note with it: Mus musculus, 72 hours, CellTiter-Glo.
From the text: as §1, §2, §3, §4, §5, §6, §7, §8, §9, §10, §11, §12, §13, §14

For another experiment, the system named is EGFR L861Q BaF3. Described as above. The note with it: Mus musculus, 72 hours, CellTiter-Glo. Format: cell-based.
From the text: as §1, §2, §3, §4, §5, §6, §7, §8, §9, §10, §11, §12, §13, §14

Another experiment concerns the target T6, EGFR (d746-750) (Homo sapiens, UniProt P00533, DEL746-750).
T6 construct: purchased Reaction Biology Corporation (commissioned test)
The experiment in a line: Kinase spectrum evaluation, radiometric 33P-ATP kinase assay. The experiment is classed as biochemical. The note with it: room temperature 2 h, 10 concentration gradients.

In the next experiment the target is T7, EGFR (A763_Y764insFHEA) (Homo sapiens, UniProt P00533, INS763FHEA).
T7 construct: purchased Reaction Biology Corporation (commissioned test)
The experiment is described as above. The experiment is classed as biochemical. The note with it: room temperature 2 h, 10 concentration gradients.

The target of another experiment is T8, ERBB2 (V777L) (Homo sapiens, UniProt P04626, V777L).
T8 construct: purchased Reaction Biology Corporation (commissioned test)
The description is as above. The experiment is classed as biochemical. The note with it: room temperature 2 h, 10 concentration gradients.

The target in a further experiment is T9, ERBB2 (V777_G778insCG) (Homo sapiens, UniProt P04626, INS777CG).
T9 construct: purchased Reaction Biology Corporation (commissioned test)
The description is as above. Format: biochemical. The note with it: room temperature 2 h, 10 concentration gradients.

Another experiment concerns the target T10, EGFR (Homo sapiens, UniProt P00533).
T10 construct: purchased Reaction Biology Corporation (commissioned test)
The experiment is described as above. The experiment is classed as biochemical. The note with it: room temperature 2 h, 10 concentration gradients.

Another experiment concerns the target T11, EGFR (G719C) (Homo sapiens, UniProt P00533, G719C).
T11 construct: purchased Reaction Biology Corporation (commissioned test)
Described as above. The note with it: room temperature 2 h, 10 concentration gradients. Format: biochemical.

The target in a further experiment is T12, ERBB2 (D769Y) (Homo sapiens, UniProt P04626, D769Y).
T12 construct: purchased Reaction Biology Corporation (commissioned test)
Described as above. The note with it: room temperature 2 h, 10 concentration gradients. The experiment is classed as biochemical.

In a further experiment the target is T13, EGFR (D770_N771insNPG) (Homo sapiens, UniProt P00533, INS770NPG).
T13 construct: purchased Reaction Biology Corporation (commissioned test)
Described as above. Format: biochemical. The note with it: room temperature 2 h, 10 concentration gradients.

The next experiment concerns the target T14, EGFR (L861Q) (Homo sapiens, UniProt P00533, L861Q).
T14 construct: purchased Reaction Biology Corporation (commissioned test)
The experiment is described as above. Format: biochemical. The note with it: room temperature 2 h, 10 concentration gradients.

The target of a further experiment is T15, EGFR (D770GY) (Homo sapiens, UniProt P00533, D770Y/INS769G).
T15 construct: purchased Reaction Biology Corporation (commissioned test)
Described as above. Format: biochemical. The note with it: room temperature 2 h, 10 concentration gradients.

The target in another experiment is T16, EGFR (G719D) (Homo sapiens, UniProt P00533, G719D).
T16 construct: purchased Reaction Biology Corporation (commissioned test)
Described as above. The note with it: room temperature 2 h, 10 concentration gradients. Format: biochemical.

A further experiment concerns the target T17, EGFR (D761Y) (Homo sapiens, UniProt P00533, D761Y).
T17 construct: purchased Reaction Biology Corporation (commissioned test)
The description is as above. The note with it: room temperature 2 h, 10 concentration gradients. The experiment is classed as biochemical.

T8 sequence (P04626 23-1255 V777L): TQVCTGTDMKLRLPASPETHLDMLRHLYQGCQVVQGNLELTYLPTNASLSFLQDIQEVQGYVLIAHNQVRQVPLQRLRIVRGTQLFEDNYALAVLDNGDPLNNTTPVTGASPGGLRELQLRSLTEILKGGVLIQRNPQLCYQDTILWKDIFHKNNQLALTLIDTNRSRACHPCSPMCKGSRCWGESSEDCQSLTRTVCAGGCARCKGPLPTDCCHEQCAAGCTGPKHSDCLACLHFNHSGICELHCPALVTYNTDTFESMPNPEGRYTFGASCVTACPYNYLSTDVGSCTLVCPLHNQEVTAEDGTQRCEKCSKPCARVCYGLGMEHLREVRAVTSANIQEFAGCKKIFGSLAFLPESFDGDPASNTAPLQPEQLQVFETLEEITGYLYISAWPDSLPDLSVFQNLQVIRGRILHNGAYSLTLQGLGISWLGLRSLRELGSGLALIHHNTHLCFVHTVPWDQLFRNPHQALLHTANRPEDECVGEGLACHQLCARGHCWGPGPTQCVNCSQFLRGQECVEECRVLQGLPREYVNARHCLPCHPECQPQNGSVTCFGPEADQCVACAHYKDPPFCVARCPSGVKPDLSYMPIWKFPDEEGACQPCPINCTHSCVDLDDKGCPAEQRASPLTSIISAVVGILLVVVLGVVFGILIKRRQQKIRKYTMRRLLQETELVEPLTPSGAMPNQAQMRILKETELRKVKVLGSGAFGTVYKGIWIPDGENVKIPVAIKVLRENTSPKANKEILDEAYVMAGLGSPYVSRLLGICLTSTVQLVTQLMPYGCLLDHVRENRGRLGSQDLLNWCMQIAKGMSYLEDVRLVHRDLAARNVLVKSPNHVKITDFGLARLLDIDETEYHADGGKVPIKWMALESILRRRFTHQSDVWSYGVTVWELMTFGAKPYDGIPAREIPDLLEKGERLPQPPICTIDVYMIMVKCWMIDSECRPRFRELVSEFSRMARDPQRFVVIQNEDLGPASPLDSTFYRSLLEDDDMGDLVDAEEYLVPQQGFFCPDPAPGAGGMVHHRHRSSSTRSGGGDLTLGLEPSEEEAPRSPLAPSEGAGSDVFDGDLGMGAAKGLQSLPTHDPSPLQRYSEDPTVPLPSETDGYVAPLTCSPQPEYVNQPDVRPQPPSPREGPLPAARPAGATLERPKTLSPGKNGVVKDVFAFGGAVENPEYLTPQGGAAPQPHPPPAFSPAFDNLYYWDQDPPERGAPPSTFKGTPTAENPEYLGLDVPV
T12 sequence (P04626 23-1255 D769Y): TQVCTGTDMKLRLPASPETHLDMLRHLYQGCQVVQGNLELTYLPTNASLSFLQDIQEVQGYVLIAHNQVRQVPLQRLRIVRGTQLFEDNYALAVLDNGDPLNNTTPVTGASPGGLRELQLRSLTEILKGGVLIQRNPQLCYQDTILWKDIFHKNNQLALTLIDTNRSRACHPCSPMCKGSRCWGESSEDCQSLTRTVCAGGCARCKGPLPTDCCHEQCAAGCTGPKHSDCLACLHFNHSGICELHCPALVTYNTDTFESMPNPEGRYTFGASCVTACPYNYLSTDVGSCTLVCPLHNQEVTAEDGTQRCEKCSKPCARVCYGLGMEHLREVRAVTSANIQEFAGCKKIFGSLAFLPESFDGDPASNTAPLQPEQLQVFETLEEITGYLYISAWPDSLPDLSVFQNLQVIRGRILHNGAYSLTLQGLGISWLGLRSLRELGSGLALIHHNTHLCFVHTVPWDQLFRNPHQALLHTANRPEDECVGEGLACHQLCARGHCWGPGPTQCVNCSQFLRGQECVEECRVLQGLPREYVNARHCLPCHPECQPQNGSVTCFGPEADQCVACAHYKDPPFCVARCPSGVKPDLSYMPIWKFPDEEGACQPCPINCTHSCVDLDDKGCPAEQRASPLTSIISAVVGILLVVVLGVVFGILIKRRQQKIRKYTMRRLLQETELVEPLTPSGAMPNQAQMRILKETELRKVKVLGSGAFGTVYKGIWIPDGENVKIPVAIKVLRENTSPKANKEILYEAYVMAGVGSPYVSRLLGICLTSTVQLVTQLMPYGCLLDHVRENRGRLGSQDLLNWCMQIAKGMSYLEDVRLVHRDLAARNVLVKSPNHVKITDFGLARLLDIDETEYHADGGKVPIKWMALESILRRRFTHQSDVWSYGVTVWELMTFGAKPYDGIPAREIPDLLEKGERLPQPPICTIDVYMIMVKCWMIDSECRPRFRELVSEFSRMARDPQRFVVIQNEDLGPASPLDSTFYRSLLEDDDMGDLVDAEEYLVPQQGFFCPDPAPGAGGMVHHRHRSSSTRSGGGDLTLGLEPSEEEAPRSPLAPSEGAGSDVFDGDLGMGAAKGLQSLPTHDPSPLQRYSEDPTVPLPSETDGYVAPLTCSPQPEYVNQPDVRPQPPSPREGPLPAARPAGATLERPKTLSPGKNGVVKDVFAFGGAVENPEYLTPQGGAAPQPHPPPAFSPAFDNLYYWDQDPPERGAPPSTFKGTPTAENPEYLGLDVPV
T9 sequence (P04626 with tags, fused parts or gaps INS777CG limits assumed): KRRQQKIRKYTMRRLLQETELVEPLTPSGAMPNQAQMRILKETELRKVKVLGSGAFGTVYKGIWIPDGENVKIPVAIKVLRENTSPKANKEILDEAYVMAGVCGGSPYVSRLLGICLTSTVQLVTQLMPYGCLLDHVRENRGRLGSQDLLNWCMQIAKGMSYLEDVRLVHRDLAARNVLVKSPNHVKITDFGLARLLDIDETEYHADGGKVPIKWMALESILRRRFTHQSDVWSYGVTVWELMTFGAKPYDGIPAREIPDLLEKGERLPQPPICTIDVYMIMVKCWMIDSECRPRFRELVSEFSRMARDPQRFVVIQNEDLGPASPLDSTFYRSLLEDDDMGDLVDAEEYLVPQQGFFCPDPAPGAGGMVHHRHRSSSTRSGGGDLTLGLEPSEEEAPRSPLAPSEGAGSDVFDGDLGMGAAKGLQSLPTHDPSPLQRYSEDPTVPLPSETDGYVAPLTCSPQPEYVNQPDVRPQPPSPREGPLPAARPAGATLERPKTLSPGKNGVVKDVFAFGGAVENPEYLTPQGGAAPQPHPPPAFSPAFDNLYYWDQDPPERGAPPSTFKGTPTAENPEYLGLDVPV
T11 sequence (P00533 25-1210 G719C): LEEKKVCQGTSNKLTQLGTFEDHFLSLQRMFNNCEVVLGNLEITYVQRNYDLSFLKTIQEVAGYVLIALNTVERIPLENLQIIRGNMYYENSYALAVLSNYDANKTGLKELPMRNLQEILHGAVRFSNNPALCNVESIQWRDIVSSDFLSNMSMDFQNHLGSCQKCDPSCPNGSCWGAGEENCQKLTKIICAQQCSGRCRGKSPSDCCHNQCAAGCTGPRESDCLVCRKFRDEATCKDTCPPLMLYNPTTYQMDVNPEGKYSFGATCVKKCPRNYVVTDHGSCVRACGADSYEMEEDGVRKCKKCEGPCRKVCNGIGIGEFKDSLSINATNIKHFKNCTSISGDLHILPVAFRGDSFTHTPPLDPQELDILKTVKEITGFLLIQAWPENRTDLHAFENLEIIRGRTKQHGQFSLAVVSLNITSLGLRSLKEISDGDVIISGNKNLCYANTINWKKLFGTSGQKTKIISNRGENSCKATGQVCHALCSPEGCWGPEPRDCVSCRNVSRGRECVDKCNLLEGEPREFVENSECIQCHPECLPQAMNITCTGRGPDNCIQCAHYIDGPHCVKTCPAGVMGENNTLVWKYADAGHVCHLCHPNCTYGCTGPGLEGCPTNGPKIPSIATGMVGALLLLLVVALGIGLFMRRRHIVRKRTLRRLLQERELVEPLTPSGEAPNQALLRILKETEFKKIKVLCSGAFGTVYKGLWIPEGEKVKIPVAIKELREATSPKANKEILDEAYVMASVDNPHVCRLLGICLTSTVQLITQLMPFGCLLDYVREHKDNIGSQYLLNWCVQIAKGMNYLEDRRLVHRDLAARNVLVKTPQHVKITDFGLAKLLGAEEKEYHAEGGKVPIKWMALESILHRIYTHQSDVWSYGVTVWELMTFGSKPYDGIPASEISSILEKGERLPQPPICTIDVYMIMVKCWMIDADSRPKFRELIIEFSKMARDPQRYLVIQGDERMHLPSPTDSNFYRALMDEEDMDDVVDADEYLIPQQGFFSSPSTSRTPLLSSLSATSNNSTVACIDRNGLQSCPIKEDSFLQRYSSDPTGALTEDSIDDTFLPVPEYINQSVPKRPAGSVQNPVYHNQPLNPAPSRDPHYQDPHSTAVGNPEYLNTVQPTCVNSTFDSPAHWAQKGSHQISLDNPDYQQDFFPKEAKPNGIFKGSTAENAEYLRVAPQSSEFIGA
T3 sequence (P00533 with tags, fused parts or gaps INS770NPG/T790M limits assumed): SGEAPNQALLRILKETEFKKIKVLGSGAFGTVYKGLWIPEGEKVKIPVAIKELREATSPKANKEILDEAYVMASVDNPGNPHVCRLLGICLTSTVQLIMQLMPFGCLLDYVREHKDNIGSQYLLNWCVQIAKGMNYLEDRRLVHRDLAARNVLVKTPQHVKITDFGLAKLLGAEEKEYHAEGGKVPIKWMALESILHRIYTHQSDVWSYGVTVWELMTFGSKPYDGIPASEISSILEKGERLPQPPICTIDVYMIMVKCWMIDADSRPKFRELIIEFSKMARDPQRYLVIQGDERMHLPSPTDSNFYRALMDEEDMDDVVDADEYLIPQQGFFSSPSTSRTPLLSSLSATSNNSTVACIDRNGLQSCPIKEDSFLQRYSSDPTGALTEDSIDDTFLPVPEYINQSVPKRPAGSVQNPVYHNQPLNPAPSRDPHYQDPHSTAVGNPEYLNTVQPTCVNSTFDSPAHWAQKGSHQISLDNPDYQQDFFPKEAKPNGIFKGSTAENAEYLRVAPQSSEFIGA

Turning to `C=CC(=O)Nc1cccc(-n2c(=O)c(-c3ccccc3)nc3cnc(Nc4ccc(N5CCN(C)CC5)cc4OC)nc32)c1` [Compound 1], the IC50 came to 290 pM against EGFR (A763_Y764insFQEA); 360 pM against EGFR (G719S); 490 pM in experiment [1]; 170 pM on EGFR (L858R); 290 pM at EGFR (d747-749/A750P); 840 pM on EGFR (d746-750). The IC50 on EGFR (A763_Y764insFHEA) came to 400 pM; against ERBB2 (V777L), 310 pM; at ERBB2 (V777_G778insCG), 220 pM; against EGFR it was 80 pM; against EGFR (G719C), 510 pM; against ERBB2 (D769Y), 350 pM. Besides, on EGFR (D770_N771insNPG), half-maximal inhibition (IC50) required 230 pM. The GI50 turned out to be 1630 pM in experiment [2]; 5420 pM in the experiment on EGFR H773_V774insH BaF3; 990 pM in experiment [3]; 5590 pM in [4]; 580 pM in the experiment with EGFR G719A BaF3; 980 pM in the experiment with EGFR L861Q BaF3.
As for `C=CC(=O)N1CCC(Oc2cc3c(Nc4ccc(Cl)c(Cl)c4F)ncnc3cc2OC)CC1` [Poziotinib], the figures for the half-maximal inhibitory concentration (IC50) on ERBB2 (V777L), against ERBB2 (V777_G778insCG) and against ERBB2 (D769Y) were 210 pM, 90 pM and 210 pM, respectively.
Consider `C=CC(=O)Nc1cc(Nc2ncc(C(=O)OC(C)C)c(-c3cn(C)c4ccccc34)n2)c(OC)cc1N(C)CCN(C)C` [TAK788, Mobocertinib], for which the 50% growth inhibitory concentration (GI50) is 1490 pM in experiment [2]; 4440 pM with EGFR H773_V774insH BaF3; 1530 pM in [3]; 4730 pM in experiment [4]; 4660 pM with EGFR G719A BaF3; 2550 pM with EGFR L861Q BaF3.
As to `C=CC(=O)Nc1cccc(-n2c(=O)c(-c3ccccc3)nc3cnc(Nc4ccc(N(C)CCN(C)C)cc4OC)nc32)c1` [compound A], the IC50 at EGFR (A763_Y764insFQEA) was found to be 350 pM; against EGFR (G719S), 1450 pM; against EGFR (L861Q), 2050 pM; in experiment [1], 670 pM; against EGFR (D770GY) it was 280 pM; on EGFR (A763_Y764insFHEA) it was 670 pM. Moreover, the 50% inhibitory concentration (IC50) against ERBB2 (V777L) is 780 pM; at ERBB2 (V777_G778insCG) it was 350 pM; against EGFR (G719D) it was 2190 pM; against EGFR (G719C), 1090 pM; against ERBB2 (D769Y), 790 pM; against EGFR (D770_N771insNPG) it was 520 pM. The molecule further came in with an IC50 at EGFR (D761Y) of 340 pM.
